Data published in patent US8779157B2, “MGLUR4 allosteric potentiators, compositions, and methods of treating neurological dysfunction” (Vanderbilt University, priority 2009, dated 2014).

biological target: mGluR4 (UniProt Q14833); assay: mGluR4 potentiation assay (fluorescence, Ca2+ or thallium/GIRK readout; EC20 agonist); type: cell-based, human / rat; settings: half maximal effective concentration for mGluR4 potentiation; species of receptor not given
Procedure: The disclosed compounds and compositions can be evaluated for their ability to act as a potentiator of metabotropic glutamate receptor activity, in particular mGluR4 activity, by any suitable known methodology known in the art. For example, Chinese Hamster Ovary (CHO) cells transfected with human mGluR4 or HEK cells co-transfected with rat mGluR4 and the G-protein regulated Inwardly Rectifying Potassium channel (GIRK) were plated in clear bottom assay plates for assay in a Hamamatsu FDSS Fluorometric Plate Reader. The cells were loaded with either a Ca2+-sensitive fluorescent dye or the thallium responsive dye and the plates were washed and placed into a suitable kinetic plate reader. For human mGluR4 assays, a fluorescence baseline was established for 3-5 seconds, the disclosed compounds were then added to the cells, and the response in cells was measured. Approximately two and a half minutes later, a concentration of mGluR4 orthosteric agonist (e.g. glutamate or L-AP4) eliciting approximately 20% (EC20) of the maximal agonist response was added to the cells, and the response was measured. Two minutes later, a concentration of mGluR4 agonist (e.g. glutamate or L-AP4) eliciting 80% (EC80) of the maximal agonist response was added to the cells, and the response was measured. For rat mGluR4/GIRK experiments, a baseline was established for approximately five seconds, disclosed compounds were added, and either an EC20 or EC80 concentration of agonist was added approximately two and one half minutes later. Potentiation of the agonist response of mGluR4 by the disclosed compounds was observed as an increase in response to the EC20 concentration of agonist in the presence of compound compared to the response to agonist in the absence of compound. Similarly, antagonism of the agonist response of mGluR4 by the disclosed compounds was observed as a decrease in response to the EC80 concentration of agonist in the presence of compound compared to the response to agonist in the absence of compound.
The above described assay operated in two modes. In the first mode, a range of concentrations of the disclosed compounds are added to cells, followed by a single fixed concentration of agonist. If the compound acts as a potentiatior, an EC50 value for potentiation and a maximum extent of potentiation by the compound at this concentration of agonist is determined by non-linear curve fitting. If the compound acts as a noncompetitive antagonist, an IC50 value is determined by non-linear curve fitting. In the second mode, several fixed concentrations of the disclosed compounds are added to various wells on a plate, followed by a range in concentrations of agonist for each concentration of disclosed compound. The EC50 values for the agonist at each concentration of compound are determined by non-linear curve fitting. A decrease in the EC50 value of the agonist with increasing concentrations of the sample compound (a leftward shift of the agonist concentration-response curve) is an indication of the degree of mGluR4 potentiation at a given concentration of the sample compound. A decrease in the maximal response of the agonist with increasing concentrations of the sample compounds, with or without a rightward shift in agonist potency, is an indication of the degree of noncompetitive antagonism at mGluR4. The second mode also indicates whether the sample compounds also affect the maximum response to mGluR4 to agonists.

EC50 [µM] | SMILES
0.185 | CC12CCCCN1C(=S)N(c1ccc(NC(=O)c3ccccn3)cc1Cl)C2=O (stereo not drawn) [Example 1.3.49, N-(3-chloro-4-(8a-methyl-1-oxo-3-thioxohexahydroimidazo[1,5-a]pyridin-2(3H)-yl)phenyl)picolinamide]
0.761 | CC12CCCCN1C(=S)N(c1ccc(NC(=O)c3nccs3)cc1Cl)C2=O (stereo not drawn) [Example 1.3.94, N-(3-chloro-4-(8a-methyl-1-oxo-3-thioxohexahydroimidazo[1,5-a]pyridin-2(3H)-yl)phenyl)thiazole-2-carboxamide]
6.11 | O=C(Nc1ccc(N2C(=O)C3COCCN3C2=O)c(Cl)c1)c1cscn1 (stereo not drawn) [Example 1.3.26, N-(3-Chloro-4-(1,3-dioxodihydro-1H-imidazo[5,1-c][1,4]oxazin-2(3H,8H,8aH)-yl)phenyl)thiazole-4-carboxamide]
4.67 | CC12CCCCN1C(=O)N(c1ccc(NC(=O)c3ccc(Cl)o3)cc1Cl)C2=O (stereo not drawn) [Example 1.3.89, 5-chloro-N-(3-chloro-4-(8a-methyl-1,3-dioxohexahydroimidazo[1,5-a]pyridin-2(3H)-yl)phenyl)furan-2-carboxamide]
0.65 | CC12CCCCN1C(=S)N(c1ccc(NC(=O)c3ncccc3F)cc1Cl)C2=O (stereo not drawn) [Example 1.3.99, N-(3-chloro-4-(8a-methyl-1-oxo-3-thioxohexahydroimidazo[1,5-a]pyridin-2(3H)-yl)phenyl)-3-fluoropicolinamide]
2.67 | CC12CCCCN1C(=O)N(c1ccc(NC(=O)c3cscn3)cc1Cl)C2=O (stereo not drawn) [Example 1.3.87, N-(3-chloro-4-(8a-methyl-1,3-dioxohexahydroimidazo[1,5-a]pyridin-2(3H)-yl)phenyl)thiazole-4-carboxamide]
3.79 | CC12CCCCN1C(=O)N(c1ccc(NC(=O)c3ncccc3F)cc1Cl)C2=O (stereo not drawn) [Example 1.3.91, N-(3-chloro-4-(8a-methyl-1,3-dioxohexahydroimidazo[1,5-a]pyridin-2(3H)-yl)phenyl)-3-fluoropicolinamide]
1.05 | CC12CCCCN1C(=S)N(c1ccc(NC(=O)c3cscn3)cc1Cl)C2=O (stereo not drawn) [Example 1.3.95, N-(3-chloro-4-(8a-methyl-1-oxo-3-thioxohexahydroimidazo[1,5-a]pyridin-2(3H)-yl)phenyl)thiazole-4-carboxamide]
0.295 | CC12CCCCN1C(=S)N(c1ccc(NC(=O)c3ncc(F)cc3F)cc1Cl)C2=O (stereo not drawn) [Example 1.3.96, N-(3-chloro-4-(8a-methyl-1-oxo-3-thioxohexahydroimidazo[1,5-a]pyridin-2(3H)-yl)phenyl)-3,5-difluoropicolinamide]
1.12 | CC12CCCCN1C(=O)N(c1ccc(NC(=O)c3cccc(F)n3)cc1Cl)C2=O (stereo not drawn) [Example 1.3.90, N-(3-chloro-4-(8a-methyl-1,3-dioxohexahydroimidazo[1,5-a]pyridin-2(3H)-yl)phenyl)-6-fluoropicolinamide]

The next lines start with the compound.

SMILES | EC50 [µM]
C[C@@]1(Cc2ccccc2)NC(=O)N(c2ccc(NC(=O)c3ncc(F)cc3F)cc2Cl)C1=O [Example 1.3.66, (S)-N-(4-(4-benzyl-4-methyl-2,5-dioxoimidazolidin-1-yl)-3-chlorophenyl)-3,5-difluoropicolinamide] | 2.96
O=C(Nc1ccc(N2C(=O)C3CCCCN3C2=S)c(Cl)c1)c1ccc(Cl)o1 (stereo not drawn) [Example 1.3.82, 5-chloro-N-(3-chloro-4-(1-oxo-3-thioxohexahydroimidazo[1,5-a]pyridin-2(3H)-yl)phenyl)furan-2-carboxamide] | 2.85
O=C(Nc1ccc(N2C(=O)C3CCCCN3C2=S)c(Cl)c1)c1cccs1 (stereo not drawn) [Example 1.3.77, N-(3-chloro-4-(1-oxo-3-thioxohexahydroimidazo[1,5-a]pyridin-2(3H)-yl)phenyl)thiophene-2-carboxamide] | 2.78
C[C@]1(Cc2ccccc2)NC(=O)N(c2ccc(NC(=O)c3ccccn3)cc2Cl)C1=O [Example 1.3.19, (R)-N-(4-(4-Benzyl-4-methyl-2,5-dioxoimidazolidin-1-yl)-3-chlorophenyl)picolinamide] | 0.84
O=C(Nc1ccc(N2C(=O)C3CCCCN3C2=O)c(Cl)c1)c1ccc(Cl)o1 (stereo not drawn) [Example 1.3.8, 5-Chloro-N-(3-chloro-4-(1,3-dioxotetrahydroimidazo[1,5-a]pyridin-2(1H,3H,5H)-yl)phenyl)furan-2-carboxamide] | 6.2
C[C@@]1(Cc2ccccc2)NC(=O)N(c2ccc(NC(=O)c3cccc(F)n3)cc2Cl)C1=O [Example 1.3.69, (S)-N-(4-(4-benzyl-4-methyl-2,5-dioxoimidazolidin-1-yl)-3-chlorophenyl)-6-fluoropicolinamide] | 1.63
O=C(Nc1ccc(N2C(=O)N[C@@H](c3ccccc3)C2=O)c(Cl)c1)c1ccccn1 [Example 1.3.56, (S)-N-(3-chloro-4-(2,5-dioxo-4-phenylimidazolidin-1-yl)phenyl)picolinamide] | 0.38
O=C(Nc1ccc(N2C(=O)C3CCCCN3C2=O)c(Cl)c1)c1ncccc1F (stereo not drawn) [Example 1.3.7, N-(3-Chloro-4-(1,3-dioxotetrahydroimidazo[1,5-a]pyridin-2(1H,3H,5H)-yl)phenyl)-3-fluoropicolinamide] | 3.31
COc1cc(NC(=O)c2ccccn2)ccc1N1C(=O)C2CCCCN2C1=O (stereo not drawn) [Example 1.3.1, N-(4-(1,3-dioxotetrahydroimidazo[1,5-a]pyridin-2(1H,3H,5H)-yl)-3-methoxyphenyl)picolinamide] | 2.7
CN1C(=O)N(c2ccc(NC(=O)c3ccccn3)cc2Cl)C(=O)[C@]1(C)Cc1ccc(F)cc1 [Example 1.3.62, (S)-N-(3-chloro-4-(4-(4-fluorobenzyl)-3,4-dimethyl-2,5-dioxoimidazolidin-1-yl)phenyl)picolinamide] | 0.217
O=C(Nc1ccc(N2C(=O)C3CCCCN3C2=S)c(Cl)c1)c1cccc(Cl)n1 (stereo not drawn) [Example 1.3.75, 6-chloro-N-(3-chloro-4-(1-oxo-3-thioxohexahydroimidazo[1,5-a]pyridin-2(3H)-yl)phenyl)picolinamide] | 3.26
O=C(Nc1ccc(N2C(=O)C3COCCN3C2=S)c(Cl)c1)c1nccs1 (stereo not drawn) [Example 1.3.34, N-(3-Chloro-4-(1-oxo-3-thioxodihydro-1H-imidazo[5,1-c][1,4]oxazin-2(3H,8H,8aH)-yl)phenyl)thiazole-2-carboxamide] | 1.17
O=C(Nc1ccc(N2C(=O)C3CS(=O)(=O)CCN3C2=O)c(Cl)c1)c1ccccn1 (stereo not drawn) [Example 1.3.41, N-(3-chloro-4-(1,3-dioxodihydro-1H-imidazo[5,1-c][1,4]dioxothiazin-2(3H,8H,8aH)-yl)phenyl)picolinamide] | 3.03
CC(C)N1C(=O)N(c2ccc(NC(=O)c3ccccn3)cc2Cl)C(=O)[C@@H]1C(C)(C)C [Example 1.3.58, (S)-N-(4-(4-(tert-butyl)-3-isopropyl-2,5-dioxoimidazolidin-1-yl)-3-chlorophenyl)picolinamide] | 0.2
O=C(Nc1ccc(N2C(=O)NC3(CCC(c4ccccc4)CC3)C2=O)c(Cl)c1)c1ccccn1 (stereo not drawn) [Example 1.3.51, N-(3-chloro-4-(2,4-dioxo-8-phenyl-1,3-diazaspiro[4.5]decan-3-yl)phenyl)picolinamide] | 2.14
O=C(Nc1ccc(N2C(=O)C3CCCCN3C2=S)c(Cl)c1)c1cccc(F)n1 (stereo not drawn) [Example 1.3.83, N-(3-chloro-4-(1-oxo-3-thioxohexahydroimidazo[1,5-a]pyridin-2(3H)-yl)phenyl)-6-fluoropicolinamide] | 0.354
O=C(Nc1ccc(N2C(=O)C3CNCCN3C2=O)c(Cl)c1)c1ccccn1 (stereo not drawn) [Example 1.3.45] | 4.2
C[C@@]1(Cc2ccccc2)NC(=O)N(c2ccc(NC(=O)c3nccs3)cc2Cl)C1=O [Example 1.3.67, (S)-N-(4-(4-benzyl-4-methyl-2,5-dioxoimidazolidin-1-yl)-3-chlorophenyl)thiazole-2-carboxamide] | 6.11
O=C(Nc1ccc(N2C(=O)NC3(CC4CCC3C4)C2=O)c(Cl)c1)c1ccccn1 (stereo not drawn) [Example 1.3.53, N-(3-chloro-4-(2′,5′-dioxospiro[bicyclo[2.2.1]heptane-2,4′-imidazolidin]-1′-yl)phenyl)picolinamide] | 0.217
O=C(Nc1ccc(N2C(=O)NC3(CCCCC3)C2=O)c(Cl)c1)c1ccccn1 [Example 1.3.12, N-(3-chloro-4-(2,4-dioxo-1,3-diazaspiro[4.5]decan-3-yl)phenyl)picolinamide] | 0.229
